# According to ChEMBL document CHEMBL4011590, “Structure-activity relationship studies on 3,5-dinitrophenyl tetrazoles as antitubercular agents” (Eur J Med Chem, 2017):
# Columns and labels:
# [1] = test system: Mycobacterium tuberculosis; assay: Antimycobacterial activity against Mycobacterium tuberculosis H37Rv CNCTC My 331/88 after 14 days by micromethod; type: functional; conditions: H37Rv CNCTC My 331/88, 336 h
# [2] = test system: Mycobacterium tuberculosis; assay: Antimycobacterial activity against Mycobacterium tuberculosis H37Rv CNCTC My 331/88 after 21 days by micromethod; type: functional; conditions: H37Rv CNCTC My 331/88, 504 h
# Mycobacterium avium [3] = assay: Antimycobacterial activity against Mycobacterium avium CNCTC My 330/80 after 14 days by micromethod; type: functional; conditions: CNCTC My 330/80, 336 h
# Mycobacterium avium [4] = assay: Antimycobacterial activity against Mycobacterium avium CNCTC My 330/80 after 21 days by micromethod; type: functional; conditions: CNCTC My 330/80, 504 h
# Mycobacterium kansasii [5] = assay: Antimycobacterial activity against Mycobacterium kansasii CNCTC My 235/80 after 7 days by micromethod; type: functional; conditions: CNCTC My 235/80, 168 h
# Mycobacterium kansasii [6] = assay: Antimycobacterial activity against Mycobacterium kansasii CNCTC My 235/80 after 14 days by micromethod; type: functional; conditions: CNCTC My 235/80, 336 h
# Mycobacterium kansasii [7] = assay: Antimycobacterial activity against Mycobacterium kansasii CNCTC My 235/80 after 21 days by micromethod; type: functional; conditions: CNCTC My 235/80, 504 h
# Mycobacterium kansasii [8] = assay: Antimycobacterial activity against Mycobacterium kansasii isolate 6509/96 after 7 days by micromethod; type: functional; conditions: isolate 6509/96, 168 h
# Mycobacterium kansasii [9] = assay: Antimycobacterial activity against Mycobacterium kansasii isolate 6509/96 after 14 days by micromethod; type: functional; conditions: isolate 6509/96, 336 h
# Mycobacterium kansasii [10] = assay: Antimycobacterial activity against Mycobacterium kansasii isolate 6509/96 after 21 days by micromethod; type: functional; conditions: isolate 6509/96, 504 h
# CHO-K1 = assay: Cytotoxicity against CHOK1 cells after 24 hrs by MTT assay; type: cell-based; conditions: Cricetulus griseus, CHO-K1, 24 h
# Staphylococcus aureus [11] = assay: Antibacterial activity against Staphylococcus aureus ATCC 6538 after 24 hrs by broth microdilution method; type: functional; conditions: ATCC 6538, 24 h
# Staphylococcus aureus [12] = assay: Antibacterial activity against Staphylococcus aureus ATCC 6538 after 48 hrs by broth microdilution method; type: functional; conditions: ATCC 6538, 48 h
# Staphylococcus aureus [13] = assay: Antibacterial activity against methicillin-resistant Staphylococcus aureus HK5996/08 after 24 hrs by broth microdilution method; type: functional; conditions: HK5996/08, 24 h
# Staphylococcus aureus [14] = assay: Antibacterial activity against methicillin-resistant Staphylococcus aureus HK5996/08 after 48 hrs by broth microdilution method; type: functional; conditions: HK5996/08, 48 h
# [15] = test system: Staphylococcus epidermidis; assay: Antibacterial activity against Staphylococcus epidermidis HK6966/08 after 24 hrs by broth microdilution method; type: functional; conditions: HK6966/08, 24 h
# [16] = test system: Staphylococcus epidermidis; assay: Antibacterial activity against Staphylococcus epidermidis HK6966/08 after 48 hrs by broth microdilution method; type: functional; conditions: HK6966/08, 48 h
# Enterococcus sp. [17] = assay: Antibacterial activity against Enterococcus sp. HK14365/08 after 24 hrs by broth microdilution method; type: functional; conditions: HK14365/08, 24 h
# Enterococcus sp. [18] = assay: Antibacterial activity against Enterococcus sp. HK14365/08 after 48 hrs by broth microdilution method; type: functional; conditions: HK14365/08, 48 h
# Escherichia coli [19] = assay: Antibacterial activity against Escherichia coli ATCC 8739 after 24 hrs by broth microdilution method; type: functional; conditions: ATCC 8739, 24 h
# Escherichia coli [20] = assay: Antibacterial activity against Escherichia coli ATCC 8739 after 48 hrs by broth microdilution method; type: functional; conditions: ATCC 8739, 48 h
# Klebsiella pneumoniae [21] = assay: Antibacterial activity against Klebsiella pneumoniae HK11750/08 after 24 hrs by broth microdilution method; type: functional; conditions: HK11750/08, 24 h
# Klebsiella pneumoniae [22] = assay: Antibacterial activity against Klebsiella pneumoniae HK11750/08 after 48 hrs by broth microdilution method; type: functional; conditions: HK11750/08, 48 h
# Klebsiella pneumoniae [23] = assay: Antibacterial activity against extended spectrum beta-lactamase producing Klebsiella pneumoniae HK14368/08 after 24 hrs by broth microdilution method; type: functional; conditions: HK14368/08, 24 h
# Klebsiella pneumoniae [24] = assay: Antibacterial activity against extended spectrum beta-lactamase producing Klebsiella pneumoniae HK14368/08 after 48 hrs by broth microdilution method; type: functional; conditions: HK14368/08, 48 h
# Pseudomonas aeruginosa [25] = assay: Antibacterial activity against Pseudomonas aeruginosa ATCC 9027 after 24 hrs by broth microdilution method; type: functional; conditions: ATCC 9027, 24 h
# Pseudomonas aeruginosa [26] = assay: Antibacterial activity against Pseudomonas aeruginosa ATCC 9027 after 48 hrs by broth microdilution method; type: functional; conditions: ATCC 9027, 48 h
# Candida albicans [27] = assay: Antifungal activity against Candida albicans ATCC 44859 after 24 hrs by broth microdilution method; type: functional; conditions: ATCC 44859, 24 h
# Candida albicans [28] = assay: Antifungal activity against Candida albicans ATCC 44859 after 48 hrs by broth microdilution method; type: functional; conditions: ATCC 44859, 48 h
# Candida tropicalis [29] = assay: Antifungal activity against Candida tropicalis 156 after 24 hrs by broth microdilution method; type: functional; conditions: Candida tropicalis, 156, 24 h
# Candida tropicalis [30] = assay: Antifungal activity against Candida tropicalis 156 after 48 hrs by broth microdilution method; type: functional; conditions: Candida tropicalis, 156, 48 h
# Pichia kudriavzevii [31] = assay: Antifungal activity against Candida krusei E28 after 24 hrs by broth microdilution method; type: functional; conditions: E28, 24 h
# Pichia kudriavzevii [32] = assay: Antifungal activity against Candida krusei E28 after 48 hrs by broth microdilution method; type: functional; conditions: E28, 48 h
# Nakaseomyces glabratus [33] = assay: Antifungal activity against Candida glabrata 20/I after 24 hrs by broth microdilution method; type: functional
# Nakaseomyces glabratus [34] = assay: Antifungal activity against Candida glabrata 20/I after 48 hrs by broth microdilution method; type: functional
# Trichosporon asahii [35] = assay: Antifungal activity against Trichosporon asahii 1188 after 24 hrs by broth microdilution method; type: functional; conditions: Trichosporon asahii, 1188, 24 h
# Trichosporon asahii [36] = assay: Antifungal activity against Trichosporon asahii 1188 after 48 hrs by broth microdilution method; type: functional; conditions: Trichosporon asahii, 1188, 48 h
# Aspergillus fumigatus [37] = assay: Antifungal activity against Aspergillus fumigatus 231 after 24 hrs by broth microdilution method; type: functional; conditions: Aspergillus fumigatus, 231, 24 h
# Aspergillus fumigatus [38] = assay: Antifungal activity against Aspergillus fumigatus 231 after 48 hrs by broth microdilution method; type: functional; conditions: Aspergillus fumigatus, 231, 48 h
# Lichtheimia corymbifera [39] = assay: Antifungal activity against Absidia corymbifera 272 after 24 hrs by broth microdilution method; type: functional; conditions: Lichtheimia corymbifera, 272, 24 h
# Lichtheimia corymbifera [40] = assay: Antifungal activity against Absidia corymbifera 272 after 48 hrs by broth microdilution method; type: functional; conditions: Lichtheimia corymbifera, 272, 48 h
# [41] = test system: Trichophyton mentagrophytes; assay: Antifungal activity against Trichophyton mentagrophytes 445 after 72 hrs by broth microdilution method; type: functional; conditions: Trichophyton mentagrophytes, 445, 72 h
# [42] = test system: Trichophyton mentagrophytes; assay: Antifungal activity against Trichophyton mentagrophytes 445 after 120 hrs by broth microdilution method; type: functional; conditions: Trichophyton mentagrophytes, 445, 120 h
smiles,measurement,setting,value
O=[N+]([O-])c1cc(-c2nnn(Cc3ccc(F)cc3)n2)cc([N+](=O)[O-])c1,MIC99,[1],0.25 µM
same,MIC99,[2],0.5 µM
same,MIC99,Mycobacterium avium [3],8 µM
same,MIC99,Mycobacterium avium [4],8 µM
same,MIC99,Mycobacterium kansasii [5],1 µM
same,MIC99,Mycobacterium kansasii [6],2 µM
same,MIC99,Mycobacterium kansasii [7],2 µM
same,MIC99,Mycobacterium kansasii [8],1 µM
same,MIC99,Mycobacterium kansasii [9],2 µM
same,MIC99,Mycobacterium kansasii [10],4 µM
same,IC50,CHO-K1,35 µM
same,MIC,Staphylococcus aureus [11],> 500 µM
same,MIC,Staphylococcus aureus [12],> 500 µM
same,MIC,Staphylococcus aureus [13],> 500 µM
same,MIC,Staphylococcus aureus [14],> 500 µM
same,MIC,[15],> 500 µM
same,MIC,[16],> 500 µM
same,MIC,Enterococcus sp. [17],> 500 µM
same,MIC,Enterococcus sp. [18],> 500 µM
same,MIC,Escherichia coli [19],> 500 µM
same,MIC,Escherichia coli [20],> 500 µM
same,MIC,Klebsiella pneumoniae [21],> 500 µM
same,MIC,Klebsiella pneumoniae [22],> 500 µM
same,MIC,Klebsiella pneumoniae [23],> 500 µM
same,MIC,Klebsiella pneumoniae [24],> 500 µM
same,MIC,Pseudomonas aeruginosa [25],> 500 µM
same,MIC,Pseudomonas aeruginosa [26],> 500 µM
same,MIC,Candida albicans [27],> 500 µM
same,MIC,Candida albicans [28],> 500 µM
same,MIC,Candida tropicalis [29],> 500 µM
same,MIC,Candida tropicalis [30],> 500 µM
same,MIC,Pichia kudriavzevii [31],> 500 µM
same,MIC,Pichia kudriavzevii [32],> 500 µM
same,MIC,Nakaseomyces glabratus [33],> 500 µM
same,MIC,Nakaseomyces glabratus [34],> 500 µM
same,MIC,Trichosporon asahii [35],> 500 µM
same,MIC,Trichosporon asahii [36],> 500 µM
same,MIC,Aspergillus fumigatus [37],> 500 µM
same,MIC,Aspergillus fumigatus [38],> 500 µM
same,MIC,Lichtheimia corymbifera [39],> 500 µM
same,MIC,Lichtheimia corymbifera [40],> 500 µM
same,MIC,[41],> 500 µM
same,MIC,[42],> 500 µM
CCCCCCCCCCCCn1nnc(-c2cc([N+](=O)[O-])cc([N+](=O)[O-])c2)n1,MIC99,[1],1 µM
same,MIC99,[2],2 µM
same,MIC99,Mycobacterium avium [3],8 µM
same,MIC99,Mycobacterium avium [4],16 µM
same,MIC99,Mycobacterium kansasii [5],4 µM
same,MIC99,Mycobacterium kansasii [6],8 µM
same,MIC99,Mycobacterium kansasii [7],8 µM
same,MIC99,Mycobacterium kansasii [8],2 µM
same,MIC99,Mycobacterium kansasii [9],4 µM
same,MIC99,Mycobacterium kansasii [10],4 µM
same,IC50,CHO-K1,> 200 µM
same,MIC,Staphylococcus aureus [11],> 250 µM
same,MIC,Staphylococcus aureus [12],> 250 µM
same,MIC,Staphylococcus aureus [13],> 250 µM
same,MIC,Staphylococcus aureus [14],> 250 µM
same,MIC,[15],> 250 µM
same,MIC,[16],> 250 µM
same,MIC,Enterococcus sp. [17],> 250 µM
same,MIC,Enterococcus sp. [18],> 250 µM
same,MIC,Escherichia coli [19],> 250 µM
same,MIC,Escherichia coli [20],> 250 µM
same,MIC,Klebsiella pneumoniae [21],> 250 µM
same,MIC,Klebsiella pneumoniae [22],> 250 µM
same,MIC,Klebsiella pneumoniae [23],> 250 µM
same,MIC,Klebsiella pneumoniae [24],> 250 µM
same,MIC,Pseudomonas aeruginosa [25],> 250 µM
same,MIC,Pseudomonas aeruginosa [26],> 250 µM
same,MIC,Candida albicans [27],> 250 µM
same,MIC,Candida albicans [28],> 250 µM
same,MIC,Candida tropicalis [29],> 250 µM
same,MIC,Candida tropicalis [30],> 250 µM
same,MIC,Pichia kudriavzevii [31],> 250 µM
same,MIC,Pichia kudriavzevii [32],> 250 µM
same,MIC,Nakaseomyces glabratus [33],> 250 µM
same,MIC,Nakaseomyces glabratus [34],> 250 µM
same,MIC,Trichosporon asahii [35],> 250 µM
same,MIC,Trichosporon asahii [36],> 250 µM
same,MIC,Aspergillus fumigatus [37],> 250 µM
same,MIC,Aspergillus fumigatus [38],> 250 µM
same,MIC,Lichtheimia corymbifera [39],> 250 µM
same,MIC,Lichtheimia corymbifera [40],> 250 µM
same,MIC,[41],> 250 µM
same,MIC,[42],> 250 µM
